Data set [1] concerns the target PP2A (Homo sapiens, UniProt P67775). The following applies: cited from earlier work; for PP2A inhibition: statement in words.
The next data set relates to heart. Put plainly: Example 5: tissue damage from reperfusion injury in the heart after myocardial infarction. The following applies: following myocardial infarction; no data given. Format: in vivo. The procedure:
(§1) LB100, LB102 or LB107 are tested in an animal model of cardiac ischemia-reperfusion injury.

Data set [2] in a line: Example 5: sepsis, vascular leakage and endothelial dysfunction from reperfusion injury. Format: in vivo. Conditions: subject suffering from sepsis; no data given.
In data set [3] the test system is Akt. Put plainly: Example 3: phosphorylation and activation of Akt in mammalian cells. The format is cell-based. The following applies: mammalian cells incl. cardiac, brain, endothelial cells; no data given.
The next data set has as its system mammalian tissue. The data set can be described thus: Example 4: reperfusion injury in mammalian tissue that has suffered an ischemia. Format: in vivo. The following applies: mammalian tissue after ischemia; no data given. The procedure:
as §1
The mammalian tissue includes, but is not limited to, cardiac tissue, brain tissue and endothelial tissue.

For data set [4] the following is noted: given orally to mice; cited from earlier work.
Data set [5] in a line: Toxicokinetic studies in rats. Format: in vivo. Conditions: doses known to inhibit PP2A in tissue of rodents.
Data set [6] in a line: Toxicokinetic studies in dogs. The format is in vivo. Conditions: doses known to inhibit PP2A in tissue of rodents.
Data set [7] deals with Akt. The following applies: Lu et al. 2009; US patent; cited from earlier work.
Data set [8] relates to PP2A. The following applies: in vitro in human cancer cells; cited from earlier work.
The test system of a further data set is cancer cells. Conditions: mouse model systems; cited from earlier work.
For data set [9], the system named is PP2A. Conditions: xenografts of human tumor cells in mice, given parenterally; cited from earlier work. On the technique in general: A xenograft is tissue or cells of one species grown in another, often human tumour cells in immunodeficient mice.
Data set [10] has as its system distal end of a flap graft. Put plainly: Survival of tissue at the distal end of a skin flap graft (necrosis by planimetry and photographs). The format is in vivo, in-bred rats. The procedure:
An ALZET pump (model 1007D, reservoir volume 100 ul) was implanted subcutaneously under anesthesia subcutaneously four days before creating a skin flap again under anesthesia. The pump in control animals contained sodium chloride and the pump in treated animals contained 0.55 mg of LB-100. The pump delivers 0.5 ul/hour+/−10% so each animal received about 12 ul/day for 8 days, 4 days prior to raising the graft and for the first 4 days after creation of the graft. There were 10 animals in each group.
The animals were sacrificed on day 7 following creation of the flap, the amount of necrosis at the end of the flap was measured by planimetry. The area of necrosis at the end of the flap was divided by total surface area of the entire flap and expressed as a percentage.
The visual appearance of the flaps was also inspected. FIGS. 1a-j show control rats 1-10 on day 7 and FIGS. 2a-j show treatment rats 1-10 on day 7. The treatment rats had received LB-100.

The next data set relates to PP1. The following applies: Lu et al. 2009(a); cited from earlier work.
The subject of the next data set is rabbit cells. The following applies: rabbit cells in vitro; cited from earlier work.
The test system of the next data set is pig cells. The following applies: pig cells in vitro; cited from earlier work.
The test system of data set [11] is cardiac tissue (myocardium). Conditions: given before or after onset of oxygen deprivation, cited from earlier work.
In a further data set the test system is endothelial barrier. The following applies: septic insult; concentration that inhibits PP2A activity; cited from earlier work.
The conditions of data set [12]: young and aged rats; cited from earlier work.
The test system of a further data set is pig myocardium. Conditions: cited from earlier work.
In data set [13] the test system is mouse skeletal muscle endothelial cells. Conditions: cited from earlier work.

Several values for one entry are separate records, joined by “and”; a condition that tells them apart may be missing. Identical values can stand only once. Entries after “also recorded” stand apart in the source; their conditions may differ. Like-named read-outs stand apart in the source and are kept apart here.

Sequence of PP2A (Homo sapiens, UniProt P67775) (P67775 whole entry, the tested form may be a part): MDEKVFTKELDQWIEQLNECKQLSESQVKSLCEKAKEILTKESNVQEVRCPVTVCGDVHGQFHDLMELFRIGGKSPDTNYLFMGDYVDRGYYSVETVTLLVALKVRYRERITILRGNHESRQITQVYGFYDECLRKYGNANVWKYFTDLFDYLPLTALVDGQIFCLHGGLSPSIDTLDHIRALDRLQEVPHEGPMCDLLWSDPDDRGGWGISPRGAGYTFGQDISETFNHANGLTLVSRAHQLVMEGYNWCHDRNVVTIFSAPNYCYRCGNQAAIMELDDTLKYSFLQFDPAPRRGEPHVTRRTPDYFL

Consider `COC(=O)C1C(C(=O)N2CCN(C)CC2)[C@@H]2CC[C@H]1O2` (stereo in doubt) [LB-107, 3-(4-Methylpiperazine-1-carbonyl)-7-oxa-bicyclo[2,2,1]heptane-2-carboxylic acid methyl ester], for which, at PP2A [1], the PP2A inhibition entry is “effective inhibitors of PP2A”. In addition, the “Tissue damage associated with reperfusion injury in the heart” value (shortened to “Tissue damage associated”) in the data set on heart was “reduce tissue damage; also recorded: prevent tissue damage”. In [2], the “Endothelial dysfunction associated with reperfusion injury” value (“Endothelial dysfunction associated” below) is “reduce endothelial dysfunction” and the “Vascular leakage associated with reperfusion injury” value (from here on “Vascular leakage associated”) is given as “reduce vascular leakage”. Besides, in the data set on Akt [3], the “Activation of Akt” value is reported as “increase activation of Akt”; the “Dephosphorylation and inactivation of Akt by PP2A” value (“Dephosphorylation and inactivation” below) was “reduce dephosphorylation and inactivation of Akt”; the “Phosphorylation of Akt” value was “increase phosphorylation of Akt”. Further, the Reperfusion injury entry with mammalian tissue is on record as “reduce reperfusion injury”. In addition, in [4], the Oral activity entry is “active when given orally”.

`CN1CCN(C(=O)C2C(C(=O)O)[C@H]3CC[C@@H]2O3)CC1` (some centres unmarked) [LB-100]: the PP2A inhibition entry is reported as “effective inhibitors of PP2A” at PP2A [1], “inhibitors of PP2A” in the data set on PP2A [8] and “inhibitors of PP2A” in the data set on PP2A [9]. In addition, the Toxicity result in data set [5] is “acceptable and reversible toxicity”; in data set [6], “acceptable and reversible toxicity”. In addition, the “Phosphorylation of Akt” value was “increased phosphorylation of Akt” in the data set on Akt [7] and “increase phosphorylation of Akt” in the data set on Akt [3]. For the same compound, in the data set on heart, the “Tissue damage associated” value was “reduce tissue damage; also recorded: prevent tissue damage”. Further, in the data set with cancer cells, the “Growth of cancer cells” value is on record as “inhibit the growth of cancer cells”. In data set [2], the “Endothelial dysfunction associated” value is “reduce endothelial dysfunction”. In addition, in data set [2], the “Vascular leakage associated” value is on record as “reduce vascular leakage”. Moreover, the “Activation of Akt” value in the data set on Akt [3] is given as “increase activation of Akt”. In addition, the “Dephosphorylation and inactivation” value in the data set with Akt [3] was “reduce dephosphorylation and inactivation of Akt”. The “Average area of necrosis (%)” value in [10] (average of 10 treatment rats, day 7, control average 41.0627243) was found to be 31.97%. In addition, the “Visual appearance of flaps (photographs)” value in data set [10] (day 7, distal ends of the flap, vs control rats) is “less extensive necrosis”. For the same compound, the “Necrosis (area by planimetry)” value in [10] (individual treatment rats 1-10, day 7 after flap creation, pump with 0.55 mg LB-100) is 64147 and 66886 and 77327 and 91515 and 112275 and 55473 and 63777 and 66144 and 37181 and 77089. Also, the “Area of necrosis at the end of the flap divided by total surface area of the flap (%)” value in data set [10] (individual treatment rats 1-10, day 7 after flap creation, pump with 0.55 mg LB-100, about 12 ul/day for 8 days) was 31.96% and 28.88% and 30.7% and 39.47% and 40.43% and 30.66% and 33.77% and 25.95% and 24.03% and 33.9%. In addition, in data set [10] (treated vs control rats, planimetry, day 7), the “Mean decrease in extent of necrosis in treated animals” value is on record as 22%. In addition, in the data set on mammalian tissue, the Reperfusion injury result is on record as “reduce reperfusion injury”.

Consider `CC(C)(C)OC(=O)N1CCN(C(=O)C2C(C(=O)O)[C@H]3CC[C@@H]2O3)CC1` (some centres unmarked) [LB-102], for which the IC50 (commonly the point on the concentration scale where inhibition reaches its midpoint) was around 0.4 µM at PP2A [1] (read-out: IC50 PP2A, Lu et al. 2009(a)) and around 8 µM with PP1. Also, the PP2A inhibition result is listed as “effective inhibitors of PP2A” on PP2A [1], “inhibitors of PP2A” in the data set on PP2A [8] and “inhibitors of PP2A” in the data set with PP2A [9]. For the same compound, the “Phosphorylation of Akt” value in the data set with Akt [7] was “increased phosphorylation of Akt”; in the data set on Akt [3], “increase phosphorylation of Akt”. Further, the “Tissue damage associated” value with heart is “reduce tissue damage; also recorded: prevent tissue damage”. The “Growth of cancer cells” value in the data set on cancer cells is “inhibit the growth of cancer cells”. Further, the “Endothelial dysfunction associated” value in data set [2] is “reduce endothelial dysfunction”. In [2], the “Vascular leakage associated” value is “reduce vascular leakage”. In addition, the “Activation of Akt” value in the data set on Akt [3] was “increase activation of Akt”. Also, the “Dephosphorylation and inactivation” value in the data set on Akt [3] is “reduce dephosphorylation and inactivation of Akt”. Besides, in the data set with mammalian tissue, the Reperfusion injury entry is recorded as “reduce reperfusion injury”.

As for `COC[C@@H]([C@H](O)[C@H](O)C(=O)NCC[C@H](C)c1nc(/C=C/C[C@@H]2O[C@]3(C[C@@H](O)[C@@H]2C)O[C@H]([C@H](C[C@H](O)[C@H](C)[C@H](O)[C@H](C)/C=C(C)/C(C)=C/C=C/C(C)=C\C#N)OC)[C@H](OP(=O)(O)O)C3(C)C)co1)N(C)C` [calyculin A], the Protection from injury entry in the data set on rabbit cells and in the data set with pig cells was “afforded protection from injury” throughout.

Turning to `C[C@@](O)(/C=C/[C@H]1CC=CC(=O)O1)[C@@H](C[C@@H](O)\C=C/C=C\C=C\CO)OP(=O)(O)O` [fostriecin], the Protection from injury entry with rabbit cells and in the data set on pig cells was “afforded protection from injury” in each case. For the same compound, the results for the “Size of infarction of cardiac tissue / injury” value in data set [11] and in data set [11] (listed as FOS) were “minimizes the size of infarction” and “reduces injury”, respectively.

With `C=C1[C@@H](O)[C@@H]2O[C@]3(CC[C@H](/C=C/[C@@H](C)[C@@H]4CC(C)=C[C@@]5(O[C@H](C[C@@](C)(O)C(=O)O)CC[C@H]5O)O4)O3)CC[C@H]2O[C@@H]1[C@@H](O)C[C@H](C)[C@H]1O[C@@]2(CCCCO2)CC[C@H]1C` [okadaic acid], in the data set with endothelial barrier, the Endothelial barrier disruption entry was “decreases endothelial barrier disruption”. The “Cellular death following induced MI” value in [12] is listed as “reduced cellular death”. In addition, the “Activity of phosphatases, especially PP2A, in heart tissue” value with pig myocardium (heart tissue infused with the inhibitor) is reported as “decreased”. For the same compound, in the data set with pig myocardium (pig, in vivo model), the “Protection of myocardium against ischemia” value is given as “protected pig myocardium against ischemia”. In addition, in [13], the Endothelial barrier function entry is “preserved endothelial barrier function”.

These data come from patent publication US20150174123A1, “OXABICYCLOHEPTANES AND OXABICYCLOHEPTENES FOR THE TREATMENT OF REPERFUSION INJURY” (priority 2012, published 2015).
